Common to all, as to type: physicochemical
A short description of data set [1]: Water sorption/desorption cycling (dynamic vapor sorption, DVS) at 25° C., with XRPD before and after. Particulars: for XRPD before and after water sorption/desorption cycling: two consecutive cycles, 0% to 90% relative humidity. The procedure: Water sorption measurements are performed on a DVS-1 automated gravimetric vapor sorption analyser (Surface Measurement Systems Ltd., London, UK). The DVS-1 measures the uptake and loss of vapor gravimetrically using a Cahn D200 recording ultra-microbalance with a mass resolution of ±0.1 μg. The relative humidity around the sample is controlled by mixing saturated and dry carrier gas streams using mass flow controllers. The temperature is maintained within ±0.1° C. by enclosing the entire system in a temperature-controlled incubator. A sample size between 15 and 20 mg is used. In general, the error in % (w/w) identified in a tested sample is ±0.1% (w/w).
Two protocols are utilized to operate the DVS. In one protocol, a sample is dried at 0% relative humidity (RH) to remove any surface water present and establish a dry, baseline mass. Next, the sample is exposed to the following relative humidity profile: 0%, 10%, 20%, 30%, 40%, 50%, 60%, 70%, 80%, 90%, 80%, 70%, 60%, 50%, 40%, 30%, 20%, 10%, 0%. In some instances, this profile is repeated, yielding 4 sets of data going up and down in RH. In another protocol, the sample is first equilibrated at 40% RH, then it was exposed to the following relative humidity profile: 40%, 50%, 60%, 70%, 80%, 90%, 100%, 90%, 80%, 70%, 60%, 50% 40% 30%, 20% 10%, 0%, 10%, 20%, 30%, 40%. […] If equilibrium state is not reached, the change in relative humidity took place automatically after 360 or 600 minutes. From the complete moisture sorption and desorption profile, an isotherm is calculated using the DVS Advanced Analysis Suite v3.6. All experiments were performed at 25° C.

The nature of data set [2]: Thermal gravimetric analysis (TGA). The conditions noted are these: for TGA weight loss of the transition / TGA weight loss transition, interpolated beginning temperature / TGA weight loss transition, temperature of maximum rate of weight loss: sample of the single form (Form H formed from Form E sample); for TGA weight loss transition, interpolated beginning temperature / TGA weight loss transition, temperature of maximum rate of weight loss: ±3° C. The procedure: Measurements utilizing thermal gravimetric analysis (TGA) are carried out on a T.A. instruments TGAQ500 analyzer. Mass calibration is performed with 10 and 100 mg certified masses. Temperature calibration is performed with Alumel® and nickel standards (Curie points of respectively 154° C. and 354° C.). Samples are exposed to a constant nitrogen stream of 60 ml/min, and temperature ranges from room temperature to 350° C. at a 5° C./min rate. The quantity of product tested is between 2 and 13 mg. The sample is deposited in an open aluminum sample pan, which is itself placed in a platinum pan. The temperatures identified from TGA scans of a particular sample are accurate to within ±3° C. Simultaneous TGA and DSC measurements are carried out using a […] thermal analysis system produced by the […] corporation. A liquid nitrogen cooling system makes it possible to work at temperatures below 20° C. The emitted gases, upon sample heating, are carried by a transfer capillary tube to a Pfeiffer mass spectrometer, the capillary tube heated to 150° C. The mass spectrometer can analyze molecular fragments at <<m/e>> ratios between 1 and 200 uma. A sample with a mass between 1 and 27 mg is contained in an open concave aluminum sample pan (75 μL capacity) exposed to a nitrogen stream. The sample is heated at a rate of 1 or 5° C./min.

The nature of data set [3]: Differential scanning calorimetry (DSC). The procedure: Differential scanning calorimetry (DSC) analyses are performed using a T.A Instruments Q1000 thermal analyser. Analyses are carried out using nitrogen purge gas flowing at an average rate of 50 ml/min. A mechanical compressor cools the system, and equilibrates the instruments being used at ambient temperature between analyses. […] Energy calibration is performed with a certified indium calibrator (melting enthalpy of 28.45 J/g), applying a heating rate of 5° C./min. The temperatures identified from DSC scans of a particular sample are accurate to within ±3° C. […] Modulated temperature differential scanning calorimetry (MTDSC) is also used since deconvolution of the total heat flow into reversing and non-reversing heat flows allows the transitions to be easily identified. The samples were submitted to the same experimental temperature program: after the equilibration of the sample at −5° C., the samples were heated through a modulated program from −5° C. to 210° C. at a rate of 1° C./min. […] Experiments are performed using crimped aluminium sample pans or open pans in some cases. The quantity of product analysed is typically between 2 and 13 mg.
(In DSC, transitions show as peaks or steps in heat flow.)

A short description of data set [4]: Controlled temperature (isothermal) X-ray powder diffraction: thermal stability of the crystalline form. The conditions noted are these: dry nitrogen; for form conversion as the temperature is raised (isothermal XRPD): ambient to 210° C. The procedure:
X-ray powder diffraction (XRPD) is performed on various samples of the Citrate Salt using one of three instruments. XRPD measurements with Instrument 1 utilize a Siemens-Bruker D5000 Matic powder diffractometer with a Bragg-Brentano (vertical θ-2θ configuration) parafocusing geometry. X-rays are produced from a sealed cobalt anode running at 40 kV and 30 mA. Two lines are typically emitted: CoKα1 (λ=1.7890 Å) and CoKα2 (λ=1.7929 Å). An iron β-filter limits the CoKβ (λ=1.6208 Å) radiation to about 1% of the diffracted beam at the detector. The primary beam passes through a parallel plate collimator (0.2 mm Soller slits), then through a divergence slit (0.2 mm). Diffracted X-rays are detected with a Braun 50 M multichannel linear detector having a 10°-wide detection window in angle 2θ. Scans are performed from 1.5° to 50.0° in 2θ, the scan time being 10 to 40 seconds per degree in 2θ. The error in the 2θ locations are typically within ±0.10 degrees.
In Instrument 3, XRPD measurements are performed at different temperatures to elucidate the evolution of crystal structure with temperature. Tests are carried out with a Siemens-Bruker D5000 diffractometer equipped with the Bragg Brentano parafocusing (θ-θ) geometry and an Anton-Paar TTK temperature chamber. Measurements utilize dry nitrogen or nitrogen streams having a particular humidity. The instrument specifications are substantially similar to the Siemens-Bruker D5000 Matic instrument described above (Instrument 1). Temperature is allowed to rise at a rate of 0.05° C./sec. Scans are recorded under the following conditions: a 1.5 to 50.0 degree scan in angle 2θ, 10 to 20 seconds counting time per degree in 2θ. Data are acquired in isotherm mode when the requested temperature is reached.

Data set [5] in a line: Crystallization of the Citrate Salt (Form A exposed to solvent systems under the conditions of Table 9): form(s) obtained. An excerpt:
In other particular embodiments, solvents such as ethanol, methanol/heptane, MEK/water, n-propanol, isopropanol, isopropanol/water, acetonitrile/water, or methanol may be used to crystallize Form B. More particularly, Form B may be created by taking samples of Form A and exposing them to one of the solvent systems listed above. […] In each instance, Form A of the Citrate Salt is exposed to a solvent or solvent system under the particular conditions listed in Table 9 to generate the particular form(s) or amorphous Citrate Salt.

Data set [6] in a line: Prolonged exposure to fixed relative humidity or rinsing with water, XRPD before and after. The conditions noted are these: for crystal form by XRPD after exposure to a relative humidity of 97.5%: month long exposure, ambient temperature.
[7] abbreviates: heating rate 5° C./min, A, B, H: melting/decomposition, E: loss of water and conversion to Form H, ±3° C.
[8] abbreviates: sample including Forms A and C, 5° C./min, Form C: conversion to Form A, Form A: melting/decomposition.

Structures can show the parent of a compound that is named as a salt.

As to `CC(C)(O)c1ccc2c(c1)/C(=C/CCN1CC[C@](O)(c3ccc(Cl)cc3)C(C)(C)C1)c1cccnc1CO2` [Form E, citrate salt of (S)-4-(4-Chloro-phenyl)-1-{3-[7-(1-hydroxy-1-methyl-ethyl)-11H-10-oxa-1-aza-dibenzo[a,d]cyclohepten-5-ylidene]-propyl}-3,3-dimethyl-piperidin-4-ol], in data set [1] (25° C.), the “weight change / water uptake between 10% and 90% relative humidity” value is recorded as “about 2.28 % (w/w)”; the “weight gain / water uptake as relative humidity is increased from 0% to 10%” value is recorded as “about 5.13 % (w/w)”; the “XRPD before and after water sorption/desorption cycling” value is “a structure corresponding with Form H after the cycling”. Moreover, the “behaviour under 10% relative humidity (observed at 0% relative humidity)” value in data set [1] (ambient temperatures) was “fully transforms into form H”. In addition, in data set [2] (heating rate 5° C./min), the “TGA weight loss of the transition” value is listed as 6.14 % (w/w); the “TGA weight loss transition, interpolated beginning temperature” value was 52 °C; the “TGA weight loss transition, temperature of maximum rate of weight loss” value came to 64 °C. In addition, in data set [3] (setting [7]), the “DSC endothermic transition, Tmax” value was 67 °C and the “DSC endothermic transition, interpolated beginning temperature” value came out at 45 °C. Moreover, in data set [3] (heating rate 5° C./min, transition 2411, conversion of Form E to Form H), the “DSC endothermic transition, integrated enthalpy change” value was determined as 178.3 J/g. Also, in data set [4], the “form conversion as the temperature is raised (isothermal XRPD)” value was “converts to Form B”. For the same compound, in data set [4] (sample containing Forms E, F, and G, steps of 10° C.), the “loss of stability (lines unique to the form disappear), isothermal XRPD” value is “above 50 °C”.
Regarding `CC(C)(O)c1ccc2c(c1)/C(=C/CCN1CC[C@](O)(c3ccc(Cl)cc3)C(C)(C)C1)c1cccnc1CO2` [Citrate Salt, citrate salt of (S)-4-(4-Chloro-phenyl)-1-{3-[7-(1-hydroxy-1-methyl-ethyl)-11H-10-oxa-1-aza-dibenzo[a,d]cyclohepten-5-ylidene]-propyl}-3,3-dimethyl-piperidin-4-ol], the “Form(s) identified” value is recorded as “A + D” in data set [5] (Crystallization after dissolution THF, followed by a slow evaporation at ambient temperature and atmospheric pressure); “A + C” in data set [5] (Crystallization after dissolution at high temperature in THF/water); “Amorphous” in data set [5] (Dissolution at ambient temperature in DMSO/water); “Amorphous” in data set [5] (Dissolution in THF/water and azeotropic distillation (isolation in water)); “Amorphous” in data set [5] (Dissolution in dichloromethane/methanol, followed by a quick evaporation at ambient temperature and low pressure); “A + C” in data set [5] (Maturation in THF of Forms A and B at ambient temperature). Besides, in data set [5] (Maturation in water of the amorphous form at ambient temperature), the “Form(s) identified” value is reported as “E + F + G”.
In the case of `CC(C)(O)c1ccc2c(c1)/C(=C/CCN1CC[C@](O)(c3ccc(Cl)cc3)C(C)(C)C1)c1cccnc1CO2` [Form B, citrate salt of (S)-4-(4-Chloro-phenyl)-1-{3-[7-(1-hydroxy-1-methyl-ethyl)-11H-10-oxa-1-aza-dibenzo[a,d]cyclohepten-5-ylidene]-propyl}-3,3-dimethyl-piperidin-4-ol], in data set [1] (25° C.), the “change in moles of water per mole of anhydrous crystal over relative humidity 0% to 90%” value was “about 0.4 moles of water per mole of anhydrous crystal”; the “XRPD before and after water sorption/desorption cycling” value is on record as “no structural change”. Moreover, the “change in mass as the relative humidity is changed between 0% and 90%” value in data set [1] (25° C., dry crystal basis, known to within ±0.1%) is given as “about 0.9%”. Besides, in data set [2] (heating rate 5° C./min), the “TGA weight loss from ambient temperature to about 100° C.” value was “No weight loss is detected”; the “TGA weight loss of the transition” value is “about 27.5 % (w/w)”; the “TGA weight loss transition, interpolated beginning temperature” value is “about 180 °C”; the “TGA weight loss transition, temperature of maximum rate of weight loss” value came to 192 °C. Moreover, in data set [3] (heating rate 1° C./min), the “DSC endothermic transition, Tmax” value worked out at 179 °C and the “DSC endothermic transition, interpolated beginning temperature” value turned out to be 174 °C. In data set [3] (setting [7]), the “DSC endothermic transition, Tmax” value was found to be 189 °C and the “DSC endothermic transition, interpolated beginning temperature” value is 184 °C. In data set [6], the “stability when rinsed with water, XRPD before and after the rinsing” value is “stable to 100% relative humidity”; the “crystal form by XRPD after exposure to a relative humidity of 97.5%” value is listed as “does not change form”.
As for `CC(C)(O)c1ccc2c(c1)/C(=C/CCN1CC[C@](O)(c3ccc(Cl)cc3)C(C)(C)C1)c1cccnc1CO2` [batch F1], in data set [6], the “stability when rinsed with water, XRPD before and after the rinsing” value was “loss of lines of Form F and diminution of lines of Form G, while the lines of Form E grow”; the “crystal form by XRPD after exposure to a relative humidity of 97.5%” value is “loss of lines of Form F and diminution of lines of Form G, while the lines of Form E grow”. Also, the “crystal form by XRPD after exposure to a relative humidity of 0%” value in data set [6] (about one month) is “a mixture of Forms E and B”.
Take `CC(C)(O)c1ccc2c(c1)/C(=C/CCN1CC[C@](O)(c3ccc(Cl)cc3)C(C)(C)C1)c1cccnc1CO2` [Form C, citrate salt of (S)-4-(4-Chloro-phenyl)-1-{3-[7-(1-hydroxy-1-methyl-ethyl)-11H-10-oxa-1-aza-dibenzo[a,d]cyclohepten-5-ylidene]-propyl}-3,3-dimethyl-piperidin-4-ol]: the “XRPD before and after water sorption/desorption cycling” value in data set [1] (25° C.) is reported as “no structural modification”. In data set [2] (sample including Forms A and C), the TGA weight loss entry is “about 8.22 % (w/w)” and the “TGA weight loss, temperature of maximum rate of weight loss” value was determined as 162 °C. Also, the “TGA weight loss, interpolated beginning temperature” value in data set [2] (sample including Forms A and C, Form C: conversion away from Form C, Form A: decomposition/melting) came to 157 °C. In data set [3] (heating rate 20° C./min), the “DSC endothermic transition between Form C and Form A, Tmax” value was found to be 171 °C; the “DSC endothermic transition between Form C and Form A, interpolated beginning temperature” value came to 165 °C. Further, in data set [3] (setting [8]), the “DSC endothermic transition, Tmax” value worked out at 166 °C and the “DSC endothermic transition, interpolated beginning temperature” value was “about 161 °C”. Moreover, in data set [4], the “form conversion as the temperature is raised (isothermal XRPD)” value is “conversion of the Form C crystals to Form A”.

The record behind these values is patent US7960549B2, “Solid forms of a chemokine receptor antagonist and methods of use thereof” (priority 2004, dated 2011).
